Test results taken from the supplement of paper PMC10307832.

Legend:
Experiment in all cases: relative viability (nuclei count vs DMSO), 5 days (fraction); higher = more cells survive
[1] = compound: CC1=CC=C(C=C1)C(=O)CN2C3=C(CCCC3)SC2=N [Pifithrin_alpha] + O=C(CCCCCCC(=O)Nc1ccccc1)NO [Vorinostat] (partner 1 µM)
How it was run: (§1)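 Lung cancer cell lines were seeded in 1536-well plates and dosed by pin tool the next day, with either a single drug or a fixed anchor-drug dose combined with five library-drug doses (not always all listed) spaced in √10 steps. Five days later, one step fixed the cells and stained their nuclei (final 0.05% Triton X-100, 1% formaldehyde, 1 ug/ml Hoechst), and nuclei were counted on 4× images. Relative viability is the nuclei count in treated wells divided by the count in vehicle wells, and each value is the median of duplicate plates.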

[2] = compound: CC1=CC=C(C=C1)C(=O)CN2C3=C(CCCC3)SC2=N [Pifithrin_alpha] + O=C(c1cc(Cc2n[nH]c(=O)c3ccccc23)ccc1F)N1CCN(C(=O)C2CC2)CC1 [Olaparib] (partner 8 µM)
How it was run: as §1

[3] = compound: CC1=CC=C(C=C1)C(=O)CN2C3=C(CCCC3)SC2=N [Pifithrin_alpha] + NC(=O)Nc1cc(-c2cccc(F)c2)sc1C(=O)N[C@H]1CCCNC1 [AZD7762] (partner 0.2 µM)
How it was run: as §1

[4] = compound: CNC(=O)c1ccccc1Sc1ccc2c(/C=C/c3ccccn3)n[nH]c2c1 [Axitinib] + O=C(CCCCCCC(=O)Nc1ccccc1)NO [Vorinostat] (partner 1 µM)
How it was run: as §1

Row | Cell Line | relative viability ([1]; first compound 1 µM) | relative viability ([1]; first compound 3.162 µM) | relative viability ([1]; first compound 10 µM) | relative viability ([1]; first compound 31.62 µM) | relative viability ([1]; first compound 100 µM) | relative viability ([2]; first compound 1 µM) | relative viability ([2]; first compound 3.162 µM) | relative viability ([2]; first compound 10 µM) | relative viability ([2]; first compound 31.62 µM) | relative viability ([2]; first compound 100 µM) | relative viability ([3]; first compound 1 µM) | relative viability ([3]; first compound 3.162 µM) | relative viability ([3]; first compound 10 µM) | relative viability ([3]; first compound 31.62 µM) | relative viability ([3]; first compound 100 µM) | relative viability ([4]; first compound 0.005 µM) | relative viability ([4]; first compound 0.01581 µM) | relative viability ([4]; first compound 0.05 µM) | relative viability ([4]; first compound 0.1581 µM) | relative viability ([4]; first compound 0.5 µM)
1 | NCI-H1755 | 0.773 | 0.853 | 0.694 | 0.599 | 0.724 | 0.789 | 0.747 | 0.734 | 0.544 | 0.73 | 0.433 | 0.498 | 0.46 | 0.41 | 0.434 | 0.77 | 0.8 | 0.797 | 0.714 | 0.572
2 | NCI-H2126 | 0.433 | 0.719 | 0.738 | 0.716 | 0.763 | 0.91 | 1.01 | 0.924 | 0.691 | 0.927 | 0.79 | 1.05 | 0.949 | 0.799 | 0.915 | 0.828 | 0.819 | 0.801 | 0.8 | 0.724
3 | NCI-H1793 | 0.674 | 0.571 | 0.655 | 0.753 | 0.46 | 1.01 | 0.757 | 0.798 | 0.365 | 0.649 | 0.605 | 0.402 | 0.441 | 0.323 | 0.255 | 0.955 | 0.679 | 0.693 | 0.637 | 0.678
4 | HOP-62 | 0.436 | 0.603 | 0.645 | 0.375 | 0.658 | 0.524 | 0.635 | 0.446 | 0.127 | 0.65 | 1.24 | 0.803 | 0.769 | 0.659 | 0.809 | 0.713 | 0.686 | 0.585 | 0.696 | 0.76
5 | NCI-H1395 |  | 0.662 | 0.723 |  | 0.661 |  | 0.443 | 0.442 |  | 0.432 |  | 0.385 | 0.397 |  | 0.361 | 0.706 | 0.529 | 0.709 | 0.639 | 0.649
6 | NCI-H2347 | 0.541 | 0.533 | 0.685 | 0.459 | 0.536 | 0.603 | 0.573 | 0.587 | 0.541 | 0.547 | 0.84 | 0.733 | 0.738 | 0.756 | 0.86 | 0.638 | 0.55 | 0.513 | 0.664 | 0.619
7 | HCC-15 | 0.871 | 0.833 | 0.8 | 0.676 | 0.646 | 0.733 | 0.867 | 0.697 | 0.368 | 0.581 | 1.28 | 1.27 | 1.03 | 1.1 | 1.3 | 0.992 | 0.91 | 0.837 | 0.743 | 0.823
8 | HCC-44 | 1.04 | 0.924 | 0.91 | 0.834 | 0.902 | 0.918 | 0.877 | 0.818 | 0.553 | 0.627 | 0.91 | 0.977 | 0.985 | 0.869 | 0.888 | 1.04 | 1.15 | 1.11 | 1.09 | 1.13
9 | PC-14 | 0.626 | 0.77 | 0.802 | 0.414 | 0.625 | 0.253 | 0.319 | 0.218 | 0.188 | 0.111 | 0.217 | 0.194 | 0.251 | 0.213 | 0.263 | 0.792 | 0.336 | 0.702 | 0.643 | 1.06
10 | NCI-H2085 | 0.648 | 0.737 | 0.71 | 0.616 | 0.623 | 0.807 | 0.778 | 0.796 | 0.523 | 0.685 | 1 | 0.973 | 0.881 | 0.665 | 0.762 | 0.823 | 0.788 | 0.883 | 0.758 | 0.812
11 | HCC-827 | 0.156 | 0.894 | 0.765 | 0.709 | 0.787 | 0.248 | 0.672 | 0.715 | 0.355 | 0.648 | 0.159 | 0.177 | 0.189 | 0.189 | 0.154 | 0.809 | 0.505 | 0.863 | 0.746 | 0.925
12 | NCI-H522 | 0.777 | 0.992 | 0.993 | 0.759 | 0.919 | 0.594 | 0.604 | 0.618 | 0.516 | 0.564 | 0.835 | 1.11 | 0.851 | 0.799 | 0.802 | 0.919 | 0.909 | 0.863 | 0.855 | 0.702
13 | ChaGo-K-1 | 0.574 | 0.836 | 0.788 | 0.524 | 0.771 | 0.404 | 0.424 | 0.336 | 0.231 | 0.371 | 0.905 | 0.947 | 0.872 | 0.683 | 0.866 | 0.727 | 0.754 | 0.797 | 0.746 | 0.737
14 | H3255 | 0.682 | 0.818 | 0.788 | 0.497 | 0.703 | 0.603 | 0.562 | 0.53 | 0.44 | 0.485 | 0.716 | 0.95 | 0.801 | 0.683 | 0.637 | 0.806 |  | 0.927 | 0.844 | 0.796
15 | LOU-NH91 | 0.8 | 0.868 | 0.821 | 0.597 | 0.739 | 0.821 | 0.908 | 0.864 | 0.523 | 0.795 | 0.625 | 0.755 | 0.683 | 0.589 | 0.604 | 0.966 | 0.765 | 1.01 | 0.875 | 0.939
